Measurements: publication PMC8820820, “Feasibility and safety of targeting mitochondria for cancer therapy – preclinical characterization of gamitrinib, a first-in-class, mitochondriaL-targeted small molecule Hsp90 inhibitor” (Cancer Biology & Therapy, 2022)
Like-named read-outs stand apart in the source and are kept apart here.

What was measured:
CYP1A2 = biological target: T1, CYP1A2 (Homo sapiens, UniProt P05177); test: CYP inhibition in liver microsomes; format: in vitro ADME
T1 construct: tissue Bioreclamation IVT; host or cells: pooled human liver microsomes
T1 sequence (P05177 1-516): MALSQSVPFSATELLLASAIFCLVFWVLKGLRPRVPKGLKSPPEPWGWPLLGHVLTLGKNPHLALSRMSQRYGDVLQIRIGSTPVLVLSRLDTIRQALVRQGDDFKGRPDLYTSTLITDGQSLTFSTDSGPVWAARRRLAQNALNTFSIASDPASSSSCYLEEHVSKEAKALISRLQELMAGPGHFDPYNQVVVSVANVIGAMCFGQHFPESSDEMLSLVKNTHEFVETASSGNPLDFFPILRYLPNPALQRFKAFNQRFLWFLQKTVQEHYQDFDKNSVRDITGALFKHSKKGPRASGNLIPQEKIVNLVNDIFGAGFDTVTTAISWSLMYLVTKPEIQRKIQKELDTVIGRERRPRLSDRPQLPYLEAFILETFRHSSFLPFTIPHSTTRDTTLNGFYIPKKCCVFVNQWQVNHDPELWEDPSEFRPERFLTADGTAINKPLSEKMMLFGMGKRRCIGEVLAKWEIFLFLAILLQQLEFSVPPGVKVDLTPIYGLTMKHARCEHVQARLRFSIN
Text: CYP inhibition in liver microsomes.

Sprague-Dawley rats = test: Toxicity in Sprague-Dawley rats; format: in vivo; settings: for reduction in mean body weights: male rats, fully recoverable, not adverse
Description: Ninety-six male and female Sprague-Dawley rats (6–7 weeks old) were received from Charles River Laboratories (Raleigh, NC) catheterized via a femoral vein prior to arrival. Animals were acclimated in individual stainless-steel cages with access to water and Certified Rodent Diet #2014 C (Envigo RMS) ad libitum for 6 d prior to study initiation. Environmental controls were set to maintain a temperature range of 20 to 26°C, a relative humidity range of 30 to 70%, eight or greater air changes/h, and a 12-h light/dark cycle. Animals were infused with sterile isotonic (0.9%) saline for a minimum of 4 d (0.20 mL/h for males or 0.15 mL/h for females) during the predose phase. At initiation of dosing, animals were 8 to 9 weeks old, and body weights ranged from 283 to 341 g for males and 188 to 238 g for females. Gamitrinib formulated as indicated above was administered by IV infusion on d 4, 8, 11, 15, 18, 22, 25, and 29 of the dosing phase at 1, 10, 25 mg/kg/dose and dose volume of 5 mL/kg. The vehicle control administered with the same schedule contained 2.5% DMSO, 0.125% polysorbate 80, 0.031% lecithin, 1.25% sucrose and 4.375% dextrose. Animals were checked twice daily throughout the duration of the study for mortality, abnormalities, and signs of pain or distress. Detailed observations were conducted for each animal up to two times during the predose phase and for each toxicity animal prior to dosing on d 1, 8, 15, 22, and 29 of the dosing phase and on d 1, 7, and 14 of the recovery phase. Blood samples were collected on d. 1, 4 and 29 of the dosing phase 5 min, 1 h and 24 h post-dose, maintained on chilled cryoracks and centrifuged within 1 h of collection. Tissue samples harvested from each animal were embedded in paraffin, sectioned, and slides were prepared and stained with hematoxylin and eosin.

CYP2A6 = biological target: T2, CYP2A6 (Homo sapiens, UniProt P11509); settings: microsomes
T2 sequence (P11509 1-494): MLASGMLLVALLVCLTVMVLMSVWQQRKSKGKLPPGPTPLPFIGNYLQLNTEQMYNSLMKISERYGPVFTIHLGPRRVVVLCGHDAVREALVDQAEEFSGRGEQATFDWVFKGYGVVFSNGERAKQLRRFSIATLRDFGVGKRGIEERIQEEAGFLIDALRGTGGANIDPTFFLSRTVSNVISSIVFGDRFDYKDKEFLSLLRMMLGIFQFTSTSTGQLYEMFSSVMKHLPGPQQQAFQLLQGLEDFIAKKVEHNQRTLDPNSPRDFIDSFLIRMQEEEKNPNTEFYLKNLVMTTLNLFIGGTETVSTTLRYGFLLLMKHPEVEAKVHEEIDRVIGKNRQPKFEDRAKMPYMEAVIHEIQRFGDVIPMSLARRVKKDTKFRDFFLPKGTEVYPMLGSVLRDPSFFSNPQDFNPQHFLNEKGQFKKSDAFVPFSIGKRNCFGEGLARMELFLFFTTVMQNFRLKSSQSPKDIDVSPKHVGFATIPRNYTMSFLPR
Description: CYP inhibition in liver microsomes. […] Samples were analyzed for metabolite formation by LC-MS/MS. The results were expressed using the peak area ratio of analyte to internal standard, based on the calibration curves.
Where Range=fitted uninhibited value, s=slope factor, x=inhibitor concentration, y=% control activity.

tumor cell = system: tumor cell; design: method as in PMID 19229106, PMID 29348817; settings: in culture; read-out: IC50 of tumor cell killing; cited from earlier work
NCI 60 cell-line screen = system: NCI 60 cell-line screen; design: method as in PMID 20876793, PMID 21285984; settings: read-out: IC50, anticancer activity, cited from earlier work

## COC1C=CC=C(C)C(=O)NC2=CC(=O)C(NCCCCCC[P+](c3ccccc3)(c3ccccc3)c3ccccc3)=C(CC(C)CC(OC)C(O)C(C)C=C(C)C1OC(N)=O)C2=O.F[P-](F)(F)(F)(F)F (stereo not drawn) [Gamitrinib]
CYP1A2
  IC50: 32.9 µM
Sprague-Dawley rats; 10 mg/kg/dose
  reduction in mean body weights: −5.5%
Sprague-Dawley rats; 25 mg/kg/dose
  reduction in mean body weights: −5.7%
Sprague-Dawley rats; rats
  urinalysis and ophthalmic findings: No effects on urinalysis or ophthalmic changes
Sprague-Dawley rats; rats, 25 mg/kg/dose
  serum urea nitrogen (UN) and creatinine concentrations: Minimally to mildly higher
Sprague-Dawley rats; rats, 25 mg/kg/dose, persisted to end of recovery
  kidney microscopic findings: tubular degeneration/regeneration
Sprague-Dawley rats; rats, IV twice weekly for 29 d
  non-observed adverse effect level (NOAEL): 1 mg/kg/dose
  severely toxic dose in 10% of the animals (STD 10): 10 mg/kg/dose
Sprague-Dawley rats; rats, highest dose level tested
  alterations in clinical chemistry parameters: mildly to moderately higher neutrophil, and platelet (Plts) counts, minimally prolonged partial thromboplastin time (PT), lower albumin, higher globulin, and alkaline phosphatase concentrations
Sprague-Dawley rats; rats, ≥10 mg/kg/dose
  Gamitrinib-related clinical observations: inguinal swelling, piloerection, hypoactivity, and sensitivity to touch at the infusion site
Sprague-Dawley rats; rats, ≥10 mg/kg/dose, both sexes, persisted through recovery
  microscopic findings at infusion site: mixed cell inflammation at the catheter/infusion site
Sprague-Dawley rats; toxicity animals, 10 mg/kg/dose
  Gamitrinib-related mortality: one male
Sprague-Dawley rats; toxicity animals, 25 mg/kg/dose, severe inflammation and marked hemorrhage at infusion site
  Gamitrinib-related mortality: two males, one female
Sprague-Dawley rats; toxicokinetic animals, 10 mg/kg/dose
  Gamitrinib-related mortality: two toxicokinetic females
Sprague-Dawley rats; toxicokinetic animals, 25 mg/kg/dose
  Gamitrinib-related mortality: one toxicokinetic female
CYP2A6
  IC50: 24 µM
Tumor cell
  IC50: 1 to 4 µM
NCI 60 cell-line screen; NCI 60 cell-line screen, all lines
  IC50: 0.16 to 29 µM
NCI 60 cell-line screen; breast adenocarcinoma cell lines
  IC50: 0.16 to 3.3 µM
NCI 60 cell-line screen; colon adenocarcinoma cell lines
  IC50: 0.35 to 29 µM
NCI 60 cell-line screen; melanoma cell lines
  IC50: 0.36 to 2.7 µM
